# From patent publication US20220378901A1, “APPLICATION OF PSEUDOMONAS AERUGINOSA VACCINE IN RESPIRATORY DISEASE” (Sichuan University, priority 2019, published 2022)
# Columns and labels:
# [1] = test system: SKLBPA1; test: Immunoprotection against SKLBPA1 pulmonary infection; assay type: in vivo, Pseudomonas aeruginosa
# From the text: . […] One week after the last immunization, SKLBPA1 (which is the homologous strain of vaccine bacteria) and clinical carbapenem-resistant Pseudomonas aeruginosa (CRPA) C58 (from sputum, the drug sensitivity information of clinical C58 is shown in Table 7, which is different from the serotype of vaccine bacteria) are used for challenge.
# [2] = test system: SKLBPA1; test: Efficacy against infection of vaccine alone or in combination with antibiotics; details: 24 h after infection; no immunization; ATM 4 times (2 h, 4 h, 6 h, 8 h, 100 mg/kg/time); Model 24 h 6.86 ± 0.45
# Method: The mice in the immunization group are subcutaneously immunized with SKLB-V1 in the groin at 1×10^7 CFU/100 μL, with 3 injections. […] 24 h after the last immunization, the bacteria SKLBPA1 are used for challenge.
compound,measurement,setting,value
"C[C@H]1[C@H](NC(=O)/C(=N\OC(C)(C)C(=O)O)c2csc(N)n2)C(=O)N1S(=O)(=O)O [Aztreonam, aztreonam]",Bacterial Load log10CFU,[1]; in vivo,4.31 ± 1.27 log10CFU
same,Bacterial Load log10CFU,"[1]; mice lung tissue, 4 h after infection, SKLB-V1 1×10^7 CFU s.c. at 0, 1st, 2nd weeks, aztreonam 100 mg/kg i.p. from 2 h, model 4.50 ± 1.05",4.68 ± 0.22 log10CFU
same,Lung LOG10CFU,[2],4.11 ± 0.44 LOG10CFU
